Measured values taken from patent USRE47589E1, “Phosphoramidate compounds and methods of use” (NuCana plc, priority 2003, dated 2019).

Columns and labels:
Type in all cases: cell-based
[1] = system: human prostate cancer cell line (PC-3); experiment: MTT cytotoxicity assay, prostate cancer cell line; details: Homo sapiens, read-out: EC50/μM Prostate PC-3
Protocol: (§1) The compounds include those whose preparations are described above and compounds made by preparative methods corresponding to the methods described above.
(§2) Compounds were diluted over a range of concentrations and added to cells over 1 to 3 days. The cytotoxity was determined using a MTT assay at the end of each experiment.

[2] = system: human colon cancer cell line (HT115); experiment: MTT cytotoxicity assay, colon cancer cell line; details: Homo sapiens, HT115, read-out: EC50/μM Colon HT115, MTT assay, compounds added to cells over 1 to 3 days
Protocol: as §1, §2

[3] = system: human breast cancer cell line (MDA MB 231); experiment: MTT cytotoxicity assay, breast cancer cell line; details: Homo sapiens, MDA-MB-231, read-out: EC50/μM Breast MDA MB231
Protocol: as §1, §2

Compound | EC50 [1] [µM] | EC50 [2] [µM] | EC50 [3] [µM]
COC(=O)[C@H](C)NP(=O)(OC[C@H]1O[C@@H](n2cc(/C=C/Br)c(=O)[nH]c2=O)CC1O)Oc1ccc(F)cc1 (stereo partly drawn) [Example 5, (E)-5-(2-Bromovinyl)-2′-deoxyuridine-5′-[para-fluorophenyl-(methoxy-L-alaninyl)]-phosphate] | 58 | 17 | 159
CC(C)C[C@H](NP(=O)(OC[C@H]1O[C@@H](n2cc(/C=C/Br)c(=O)[nH]c2=O)CC1O)Oc1ccc([N+](=O)[O-])cc1)C(=O)OCc1ccccc1 (stereo partly drawn) [Example 38, (E)-5-(2-Bromovinyl)-2′-deoxyuridine-5′-(para-nitrophenyl-(benzoxy-L-leucinyl)]-phosphate] | 7.2 | 10.7 | 6.3
CCOC(=O)C(C)(C)NP(=O)(OC[C@H]1O[C@@H](n2cc(/C=C/Br)c(=O)[nH]c2=O)CC1O)Oc1ccc(Cl)cc1 (stereo partly drawn) [Example 43, (E)-5-(2-bromovinyl)-2′-deoxyuridine-5′-[4-chlorophenyl-(ethoxy-α,α-dimethylglycinyl)]-phosphate] | 1.15 | 174 | 5.9
COC(=O)[C@H](C)NP(=O)(OC[C@H]1O[C@@H](n2cc(/C=C/Br)c(=O)[nH]c2=O)CC1O)Oc1ccc(C(F)(F)F)cc1 (stereo partly drawn) [Example 15, (E)-5-(2-bromovinyl)-2′-deoxyuridine-5′-[para-(trifluoromethyl)-phenyl-(methoxy-L-alaninyl)]-phosphate] | 15 | 79.2 | 47
COC(=O)[C@H](C)NP(=O)(OC[C@H]1O[C@@H](n2cc(/C=C/Br)c(=O)[nH]c2=O)CC1O)Oc1ccc([N+](=O)[O-])cc1 (stereo partly drawn) [Example 10, (E)-5-(2-Bromovinyl)-2 ′-deoxyuridine-5′-[para-nitrophenyl-(methoxy-L-alaninyl)]-phosphate] | 10.4 | 96.7 | 105
COC(=O)C1(NP(=O)(OC[C@H]2O[C@@H](n3cc(/C=C/Br)c(=O)[nH]c3=O)CC2O)Oc2ccc(F)cc2)CCCC1 (stereo partly drawn) [Example 22, (E)-5-(2-Bromovinyl)-2′-deoxyuridine-5′-[para-fluorophenyl-(methoxy-α,α-cycloleucinyl)]-phosphate] | 51 | 59.7 | 57
O=C(OCc1ccccc1)C1(NP(=O)(OC[C@H]2O[C@@H](n3cc(/C=C/Br)c(=O)[nH]c3=O)CC2O)Oc2ccc(Cl)cc2)CCCC1 (stereo partly drawn) [Example 34, (E)-5-(2-Bromovinyl)-2′-deoxyuridine-5′-[para-chlorophenyl-(benzoxy-α,α-cycloleucinyl)]-phosphate] | 6.3 | 8.9 | 3.9
COC(=O)[C@H](CC(C)C)NP(=O)(OC[C@H]1O[C@@H](n2cc(/C=C/Br)c(=O)[nH]c2=O)CC1O)Oc1ccccc1 (stereo partly drawn) [Example 35, (E)-5-(2-Bromovinyl)-2′-deoxyuridine-5′-[phenyl-(methoxy-L-leucinyl)]-phosphate] | 75.7 | 7.7 | 18.5
CC(C)(NP(=O)(OC[C@H]1O[C@@H](n2cc(/C=C/Br)c(=O)[nH]c2=O)CC1O)Oc1ccc(Cl)cc1)C(=O)OCc1ccccc1 (stereo partly drawn) [Example 44, (E)-5-(2-bromovinyl)-2′-deoxyuridine-5′-[4-chlorophenyl-(benzoxy-α,α-dimethylglycinyl)]-phosphate] | 9.12 | 4.5 | 2.3
C[C@H](NP(=O)(OC[C@H]1O[C@@H](n2cc(/C=C/Br)c(=O)[nH]c2=O)CC1O)Oc1ccc(Cl)cc1)C(=O)OCc1ccccc1 (stereo partly drawn) [Example 12, (E)-5-(2-bromovinyl)-2′-deoxyuridine-5′-[4-chlorophenyl-(benzoxy-L-alaninyl)]-phosphate] | 2.4 | 3.4 | 6.2
CCOC(=O)C1(NP(=O)(OC[C@H]2O[C@@H](n3cc(/C=C/Br)c(=O)[nH]c3=O)CC2O)Oc2ccc(C(F)(F)F)cc2)CCCC1 (stereo partly drawn) [Example 29, (E)-5-(2-Bromovinyl)-2′-deoxyuridine-5′-[para-trifluorophenyl-(ethoxy-α,α-cycloleucinyl)]-phosphate] | 4.3 | 15.1 | 45.6
COC(=O)C(C)(C)NP(=O)(OC[C@H]1O[C@@H](n2cc(/C=C/Br)c(=O)[nH]c2=O)CC1O)Oc1ccc([N+](=O)[O-])cc1 (stereo partly drawn) [Example 45, (E)-5-(2-bromovinyl)-2′-deoxyuridine-5′-[4-nitrophenyl-(methoxy-α,α-dimethylglycinyl)]-phosphate] | 223 | 24.7 | 9.4
CCOC(=O)[C@H](C)NP(=O)(OC[C@H]1O[C@@H](n2cc(/C=C/Br)c(=O)[nH]c2=O)CC1O)Oc1ccc(Cl)cc1 (stereo partly drawn) [Example 11, (E)-5-(2-bromovinyl)-2′-deoxyuridine-5′-[4-chlorophenyl-(ethoxy-L-alaninyl)]-phosphate] | 3.4 | 14.9 | 28.7
CC(C)(NP(=O)(OC[C@H]1O[C@@H](n2cc(/C=C/Br)c(=O)[nH]c2=O)CC1O)Oc1ccc([N+](=O)[O-])cc1)C(=O)OCc1ccccc1 (stereo partly drawn) [Example 47, (E)-5-(2-bromovinyl)-2′-deoxyuridine-5′-[4-nitrophenyl-(benzoxy-α,α-dimethylglycinyl)]-phosphate] | 27.2 | 16.7 | 4.5
CCOC(=O)[C@H](C)NP(=O)(OC[C@H]1O[C@@H](n2cc(/C=C/Br)c(=O)[nH]c2=O)CC1O)Oc1ccc([N+](=O)[O-])cc1 (stereo partly drawn) [Example 9, (E)-5-(2-Bromovinyl)-2′-deoxyuridine-5′-[para-nitrophenyl-(ethoxy-L-alaninyl)]-phosphate] | 365 | 119 | 177
O=C(OCc1ccccc1)C1(NP(=O)(OC[C@H]2O[C@@H](n3cc(/C=C/Br)c(=O)[nH]c3=O)CC2O)Oc2ccc(F)cc2)CCCC1 (stereo partly drawn) [Example 24, (E)-5-(2-Bromovinyl)-2′-deoxyuridine-5′-[para-fluorophenyl-(benzoxy-α,α-cycloleucinyl)]-phosphate] | 3.7 | 17 | 9.4
CC(C)(NP(=O)(OC[C@H]1O[C@@H](n2ccc(N)nc2=O)C(F)(F)C1O)Oc1ccc(Cl)cc1)C(=O)OCc1ccccc1 (stereo partly drawn) [Example 41, Gemcitabine-[para-chlorophenyl-(benzoxy-α,α-dimethylglycinyl)]-phosphate] | 68.8 | 317 | 3.1
O=c1[nH]c(=O)n([C@H]2CC(O)[C@@H](CO)O2)cc1/C=C/Br (stereo in doubt) [Example A, 5-(2-Bromovinyl)-2′-deoxyuridine, reference compound] | 120 | 78.7 | 125
CCOC(=O)C(C)(C)NP(=O)(OC[C@H]1O[C@@H](n2cc(/C=C/Br)c(=O)[nH]c2=O)CC1O)Oc1ccccc1 (stereo partly drawn) [Example 27, (E)-5-(2-bromovinyl)-2′-deoxyuridine-5′-[phenyl-(ethoxy-α,α-dimethylglycinyl)]-phosphate] | 76.1 | 39.7 | 218
CCOC(=O)C(C)(C)NP(=O)(OC[C@H]1O[C@@H](n2cc(/C=C/Br)c(=O)[nH]c2=O)CC1O)Oc1ccc([N+](=O)[O-])cc1 (stereo partly drawn) [Example 46, (E)-5-(2-bromovinyl)-2′-deoxyuridine-5′-[4-nitrophenyl-(ethoxy-α,α-dimethylglycinyl)]-phosphate] | 82.4 | 224 | 2
CC(C)(NP(=O)(OC[C@H]1O[C@@H](n2cc(/C=C/Br)c(=O)[nH]c2=O)CC1O)Oc1ccccc1)C(=O)OCc1ccccc1 (stereo partly drawn) [Example 14, (E)-5-(2-bromovinyl)-2′-deoxyuridine-5′-[phenyl-(benzoxy-α,α-dimethylglycinyl)]-phosphate] | 5.1 | 14.5 | 19
O=C(OCc1ccccc1)C1(NP(=O)(OC[C@H]2O[C@@H](n3cc(/C=C/Br)c(=O)[nH]c3=O)CC2O)Oc2ccc([N+](=O)[O-])cc2)CCCC1 (stereo partly drawn) [Example 21, (E)-5-(2-Bromovinyl)-2′-deoxyuridine-5′-[para-nitrophenyl-(benzoxy-α,α-cycloleucinyl)]-phosphate] | 2.2 | 17.2 | 8.4
CCOC(=O)C1(NP(=O)(OC[C@H]2O[C@@H](n3cc(/C=C/Br)c(=O)[nH]c3=O)CC2O)Oc2ccccc2)CCCC1 (stereo partly drawn) [Example 17, (E)-5-(2-Bromovinyl)-2′-deoxyuridine-5′-[phenyl-(ethoxy-α, α-cycloleucinyl)]-phosphate] | 41 | 81.3 | 44
CC(C)C[C@H](NP(=O)(OC[C@H]1O[C@@H](n2cc(/C=C/Br)c(=O)[nH]c2=O)CC1O)Oc1ccccc1)C(=O)OCc1ccccc1 (stereo partly drawn) [Example 37, (E)-5-(2-Bromovinyl)-2′-deoxyuridine-5′-[phenyl-(benzoxy-L-leucinyl)]-phosphate] | 7.16 | 7 | 2.8
COC(=O)C1(NP(=O)(OC[C@H]2O[C@@H](n3cc(/C=C/Br)c(=O)[nH]c3=O)CC2O)Oc2ccccc2)CCCC1 (stereo partly drawn) [Example 16, (E)-5-(2-Bromovinyl)-2′-deoxyuridine-5′-[phenyl-(methoxy-α,α-cycloleucinyl)]-phosphate] | 16 | 77 | 79
CCOC(=O)C1(NP(=O)(OC[C@H]2O[C@@H](n3cc(/C=C/Br)c(=O)[nH]c3=O)CC2O)Oc2ccc(Cl)cc2)CCCC1 (stereo partly drawn) [Example 33, (E)-5-(2-Bromovinyl)-2′-deoxyuridine-5′-[para-chlorophenyl-(ethoxy-α,α-cycloleucinyl)]-phosphate] | 83.2 | 97.9 | 12
